According to patent US10973832B2, “Muscarinic M1 receptor agonists” (Heptares Therapeutics Limited, priority 2011, dated 2021):

Experiments:
Assay type in all cases: cell-based
[1] = molecular target: T1, human muscarinic M1 receptor (Homo sapiens, UniProt P11229); experiment: Phospho-ERK1/2 assay, muscarinic M1; conditions: for EC50: CHO cells expressing human M1, phospho-ERK1/2 Alphascreen, read-out: pEC50 M1 (converted); for Emax: CHO, read-out: % Emax cf. ACh (M1)
T1 sequence (P11229 1-460): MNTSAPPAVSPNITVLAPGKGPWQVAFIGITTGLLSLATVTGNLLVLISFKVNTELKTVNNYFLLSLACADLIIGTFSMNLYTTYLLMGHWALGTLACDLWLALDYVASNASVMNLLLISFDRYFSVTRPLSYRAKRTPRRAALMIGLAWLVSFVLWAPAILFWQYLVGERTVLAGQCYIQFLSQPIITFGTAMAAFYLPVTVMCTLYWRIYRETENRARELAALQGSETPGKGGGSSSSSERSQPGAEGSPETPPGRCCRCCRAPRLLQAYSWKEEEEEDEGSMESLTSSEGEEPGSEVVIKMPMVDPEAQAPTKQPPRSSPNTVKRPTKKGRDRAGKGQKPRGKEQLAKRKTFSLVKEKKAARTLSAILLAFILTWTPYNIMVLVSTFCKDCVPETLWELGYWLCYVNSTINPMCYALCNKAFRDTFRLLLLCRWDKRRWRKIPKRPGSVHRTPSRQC
Experimental: (§1) Functional assays were performed using the Alphascreen Surefire phospho-ERK1/2 assay (Crouch & Osmond, Comb. Chem. High Throughput Screen, 2008). ERK1/2 phosphorylation is a downstream consequence of both Gq/11 and Gi/o protein coupled receptor activation, making it highly suitable for the assessment of M1, M3 (Gq/11 coupled) and M2, M4 receptors (Gi/o coupled), rather than using different assay formats for different receptor subtypes. CHO cells stably expressing the human muscarinic M1, M2, M3 or M4 receptor were plated (25K/well) onto 96-well tissue culture plates in MEM-alpha+10% dialysed FBS. Once adhered, cells were serum-starved overnight. Agonist stimulation was performed by the addition of 5 μL agonist to the cells for 5 min (37° C.). Media was removed and 50 μL of lysis buffer added. After 15 min, a 4 μL sample was transferred to 384-well plate and 7 μL of detection mixture added. Plates were incubated for 2 h with gentle agitation in the dark and then read on a PHERAstar plate reader.
(§2) pEC50 and Emax figures were calculated from the resulting data for each receptor subtype.

[2] = molecular target: T2, human muscarinic M2 receptor (Homo sapiens, UniProt P08172); experiment: Phospho-ERK1/2 assay, muscarinic M2; conditions: for EC50: CHO cells expressing human M2, phospho-ERK1/2 Alphascreen, read-out: pEC50 M2 (converted); for Emax: CHO, read-out: % Emax cf. ACh (M2)
T2 sequence (P08172 1-466): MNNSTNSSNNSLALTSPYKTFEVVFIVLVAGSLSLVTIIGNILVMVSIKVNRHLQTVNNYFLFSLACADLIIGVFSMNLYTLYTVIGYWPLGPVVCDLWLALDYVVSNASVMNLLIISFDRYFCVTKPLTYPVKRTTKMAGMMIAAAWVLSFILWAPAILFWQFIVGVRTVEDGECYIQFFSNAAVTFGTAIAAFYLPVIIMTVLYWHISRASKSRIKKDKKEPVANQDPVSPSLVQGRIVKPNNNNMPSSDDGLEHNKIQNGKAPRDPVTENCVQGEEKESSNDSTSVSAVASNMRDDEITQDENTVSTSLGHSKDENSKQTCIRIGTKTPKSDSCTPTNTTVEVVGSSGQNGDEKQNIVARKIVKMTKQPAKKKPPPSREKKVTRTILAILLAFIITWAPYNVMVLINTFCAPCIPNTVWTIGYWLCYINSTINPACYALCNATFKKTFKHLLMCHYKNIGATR
Experimental: as §1, §2

[3] = molecular target: T3, human muscarinic M3 receptor (Homo sapiens, UniProt P20309); experiment: Phospho-ERK1/2 assay, muscarinic M3; conditions: for EC50: phospho-ERK1/2 Alphascreen, read-out: pEC50 M3 (converted); for Emax: CHO, read-out: % Emax cf. ACh (M3)
T3 construct: expressed in transfected cells
Experimental: as §1, §2

[4] = molecular target: T4, human muscarinic M4 receptor (Homo sapiens, UniProt P08173); experiment: Phospho-ERK1/2 assay, muscarinic M4; conditions: for EC50: phospho-ERK1/2 Alphascreen, read-out: pEC50 M4 (converted); for Emax: CHO, read-out: % Emax cf. ACh (M4)
T4 construct: expressed in transfected cells
T4 sequence (P08173 1-479): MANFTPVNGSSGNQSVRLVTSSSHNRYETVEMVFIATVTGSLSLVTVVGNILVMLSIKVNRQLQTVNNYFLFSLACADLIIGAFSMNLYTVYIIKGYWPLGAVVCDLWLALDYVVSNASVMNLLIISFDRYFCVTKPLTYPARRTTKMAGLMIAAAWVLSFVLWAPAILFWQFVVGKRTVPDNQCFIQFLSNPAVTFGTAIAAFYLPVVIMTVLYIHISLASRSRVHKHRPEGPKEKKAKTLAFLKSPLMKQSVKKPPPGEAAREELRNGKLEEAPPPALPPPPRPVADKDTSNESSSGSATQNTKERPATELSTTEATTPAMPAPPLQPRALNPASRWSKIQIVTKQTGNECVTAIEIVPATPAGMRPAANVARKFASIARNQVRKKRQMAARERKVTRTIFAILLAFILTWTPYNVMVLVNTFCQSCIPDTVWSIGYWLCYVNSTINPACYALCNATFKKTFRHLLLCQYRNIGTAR
Experimental: as §1, §2

T3 sequence (P20309 whole entry): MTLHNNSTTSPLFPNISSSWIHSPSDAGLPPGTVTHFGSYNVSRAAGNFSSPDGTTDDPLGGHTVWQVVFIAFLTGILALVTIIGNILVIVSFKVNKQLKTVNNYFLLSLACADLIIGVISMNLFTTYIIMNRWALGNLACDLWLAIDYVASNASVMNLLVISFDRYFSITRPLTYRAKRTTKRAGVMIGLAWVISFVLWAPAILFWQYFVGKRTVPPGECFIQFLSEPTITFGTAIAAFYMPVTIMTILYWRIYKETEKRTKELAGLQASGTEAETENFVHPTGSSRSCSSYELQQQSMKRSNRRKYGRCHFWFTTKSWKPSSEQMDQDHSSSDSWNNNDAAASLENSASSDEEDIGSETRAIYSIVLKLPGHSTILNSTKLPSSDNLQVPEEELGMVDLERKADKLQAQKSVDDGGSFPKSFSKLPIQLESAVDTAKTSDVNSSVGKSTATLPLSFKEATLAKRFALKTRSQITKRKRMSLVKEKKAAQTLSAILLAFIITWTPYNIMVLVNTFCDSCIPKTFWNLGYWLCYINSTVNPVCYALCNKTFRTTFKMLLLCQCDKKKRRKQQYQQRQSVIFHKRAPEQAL

Row | EC50 [1] | Emax [1] | EC50 [2] | Emax [2] | EC50 ([3]; CHO cells expressing human M3) | Emax [3] | EC50 ([4]; CHO cells expressing human M4) | Emax [4] | % Emax cf. ACh (M3) ([3]; CHO cells expressing human M3, Emax relative to ACh) | % Emax cf. ACh (M4) ([4]; CHO cells expressing human M4, Emax relative to ACh) | Compound
1 | 64.6 nM | 108% | > 20 µM | 4% | > 20 µM | 8% | 1350 nM | 46% | – | – | CCOC(=O)N1CCCC(N2CCC(C)(C(=O)NCC(C)C)CC2)CC1 (stereo not drawn) [Example 56, ethyl 4-(4-methyl-4-((2-methylpropyl)carbamoyl)piperidin-1-yl)azepane-1-carboxylate]
2 | 39.8 nM | 97% | > 20 µM | 41% | > 20 µM | 12% | 257 nM | 88% | – | – | CCOC(=O)N1CCCC(N2CCC(F)(C(=O)NC(C)(C)CC)CC2)CC1 (stereo not drawn) [Example 41, ethyl 4-(4-fluoro-4-((1,1-dimethylpropyl)carbamoyl)piperidin-1-yl)azepane-1-carboxylate]
3 | 151 nM | 93% | > 20 µM | 3% | > 20 µM | 2% | 1660 nM | 55% | – | – | CCOC(=O)N1CCCC(N2CCC(C(=O)NCC(C)CC)CC2)CC1 (stereo not drawn) [Example 8, ethyl 4-(4-((2-methylbutyl)carbamoyl)piperidin-1-yl)azepane-1-carboxylate]
4 | 200 nM | 116% | > 20 µM | 6% | > 20 µM | 4% | 562 nM | 85% | – | – | CCOC(=O)N1CCC(N2CCC(C(=O)NC(C)(C)C(C)C)CC2)CC1 [Example 3]
5 | 97.7 nM | 122% | > 20 µM | 9% | > 20 µM | 17% | 977 nM | 90% | – | – | CCOC(=O)N1CCCC(N2CCC(F)(C(=O)NCC3CCCC3)CC2)CC1 (stereo not drawn) [Example 53, ethyl 4-(4-fluoro-4-((cyclopentylmethyl)carbamoyl)piperidin-1-yl)azepane-1-carboxylate]

The next lines start with the compound.

Row | Compound | EC50 [1] | Emax [1] | EC50 [2] | Emax [2] | EC50 ([3]; CHO cells expressing human M3) | Emax [3] | EC50 ([4]; CHO cells expressing human M4) | Emax [4] | % Emax cf. ACh (M3) ([3]; CHO cells expressing human M3, Emax relative to ACh) | % Emax cf. ACh (M4) ([4]; CHO cells expressing human M4, Emax relative to ACh)
6 | CCOC(=O)N1CCCC(N2CCC(F)(C(=O)NC3CCCC3)CC2)CC1 (stereo not drawn) [Example 51, ethyl 4-(4-fluoro-4-((cyclopentyl)carbamoyl)piperidin-1-yl)azepane-1-carboxylate] | 51.3 nM | 107% | > 20 µM | 12% | > 20 µM | 6% | 708 nM | 93% | – | –
7 | CCOC(=O)N1CCCC(N2CCC(C(=O)NCC(C)(C)C)CC2)CC1 (stereo not drawn) [Example 9, ethyl 4-(4-((2,2-dimethylpropyl)carbamoyl)piperidin-1-yl)azepane-1-carboxylate] | 117 nM | 125% | > 20 µM | 6% | 13.2 µM | 23% | 794 nM | 41% | – | –
8 | CCOC(=O)N1CCCC(N2CCC(F)(C(=O)NCC3CC3)CC2)CC1 (stereo not drawn) [Example 52, ethyl 4-(4-fluoro-4-((cyclopropylmethyl)carbamoyl)piperidin-1-yl)azepane-1-carboxylate] | 229 nM | 95% | > 20 µM | 9% | > 20 µM | 5% | 501 nM | 84% | – | –
9 | CCOC(=O)N1CCC[C@H](N2CCC(C(=O)NCC(C)C)CC2)CC1 [Example 63] | 69.2 nM | 107% | > 20 µM | 5% | > 20 µM | 5% | 646 nM | 89% | – | –
10 | CC#CCOC(=O)N1CCCC(N2CCC(OC)(C(=O)NC3(C)CCC3)CC2)CC1 (stereo not drawn) [Example 80, but-2-yn-1-yl 4-{4-methoxy-4-[(1-methylcyclobutyl)carbamoyl]piperidin-1-yl}azepane-1-carboxylate] | 37.2 nM | 89% | > 20 µM | 15% | > 20 µM | 7% | 525 nM | 71% | – | –
11 | CCOC(=O)N1CCCC(N2CCC(OC)(C(=O)NCC3(C)CCC3)CC2)CC1 (stereo not drawn) [Example 81, ethyl 4-(4-methoxy-4-{[(1-methylcyclobutyl)methyl]carbamoyl}piperidin-1-yl)azepane-1-carboxylate] | 141 nM | 110% | > 20 µM | 0% | > 20 µM | 7% | > 20000 nM | 9% | – | –
12 | CCOC(=O)N1CCCC(N2CCC(F)(C(=O)NC3(C)CCCC3)CC2)CC1 (stereo not drawn) [Example 48, ethyl 4-(4-fluoro-4-((1-methylcyclopentyl)carbamoyl)piperidin-1-yl)azepane-1-carboxylate] | 61.7 nM | 88% | > 20 µM | 12% | > 20 µM | 12% | 537 nM | 73% | – | –
13 | CCOC(=O)N1CCCC(N2CCC(F)(C(=O)NC3(C)CCC3)CC2)CC1 (stereo not drawn) [Example 50, ethyl 4-(4-fluoro-4-((1-methylcyclobutyl)carbamoyl)piperidin-1-yl)azepane-1-carboxylate] | 19.5 nM | 102% | > 20 µM | 17% | > 20 µM | 2% | 603 nM | 90% | – | –
14 | CCOC(=O)N1CCCC(N2CCC(C(=O)NCC3(CC)CCC3)CC2)CC1 (stereo not drawn) [Example 37, ethyl 4-(4-(((1-ethylcyclobutyl)methyl)carbamoyl)piperidin-1-yl)azepane-1-carboxylate] | 13.8 nM | 87% | > 20 µM | 8% | > 20 µM | 10% | 191 nM | 75% | – | –
15 | CCOC(=O)N1CCCC(N2CCC(F)(C(=O)NC3CCC3)CC2)CC1 (stereo not drawn) [Example 55, ethyl 4-(4-fluoro-4-((cyclobutyl)carbamoyl)piperidin-1-yl)azepane-1-carboxylate] | 186 nM | 75% | > 20 µM | 17% | > 20 µM | 0% | 1350 nM | 69% | – | –
16 | CCOC(=O)N1CCC[C@@H](N2CCC(C(=O)NC(C)(C)C)CC2)CC1 [Example 68, ethyl (4R)-4-[4-(tert-butylcarbamoyl)piperidin-1-yl]azepane-1-carboxylate] | 813 nM | 94% | – | – | – | – | 3720 nM | 64% | – | –
17 | CC(=O)OCC[N+](C)(C)C [ACh] | – | – | – | – | – | – | – | – | (112) % | (110) %
